What was measured:
Rattus norvegicus [1] = assay: Plasma levels of compound was evaluated in rats after 4 hr of oral administration at 3 mg/kg; format: functional, organism-based; design: dose 3 mg/kg
Rattus norvegicus [2] = assay: Plasma levels of compound was evaluated in rats after 8 hr of oral administration at 3 mg/kg; format: functional, organism-based; design: dose 3 mg/kg
[3] = molecular target: T1, Endothelin receptor type B (Homo sapiens, UniProt P24530); assay: Inhibitory activity against [125I]ET1 binding to human endothelin B receptor
T1 sequence (P24530 whole entry): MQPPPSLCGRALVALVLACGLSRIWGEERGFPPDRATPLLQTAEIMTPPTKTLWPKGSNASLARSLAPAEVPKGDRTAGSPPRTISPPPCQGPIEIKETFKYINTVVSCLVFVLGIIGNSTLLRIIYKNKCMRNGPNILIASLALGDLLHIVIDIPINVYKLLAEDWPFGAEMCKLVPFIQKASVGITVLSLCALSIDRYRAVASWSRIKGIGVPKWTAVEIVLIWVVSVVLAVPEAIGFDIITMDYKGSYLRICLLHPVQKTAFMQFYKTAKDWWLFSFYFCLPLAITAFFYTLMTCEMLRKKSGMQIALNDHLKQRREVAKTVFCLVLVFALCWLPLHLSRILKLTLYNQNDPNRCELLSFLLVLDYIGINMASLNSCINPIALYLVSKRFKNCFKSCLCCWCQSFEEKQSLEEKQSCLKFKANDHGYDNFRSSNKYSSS

Oryctolagus cuniculus = organism: Oryctolagus cuniculus; assay: Antagonistic activity towards endothelin A receptor was evaluated using the rabbit iliac artery in presence of 3% human serum albumin; format: functional
Rattus norvegicus [4] = assay: Plasma levels of compound was evaluated in rats after 1 hr of oral administration at 3 mg/kg; format: functional, organism-based; design: dose 3 mg/kg
[5] = molecular target: Endothelin receptor, ET-A/ET-B (Homo sapiens) (UniProt P24530+P25101); assay: Selectivity ratio of inhibitory activity towards endothelin receptor A to endothelin receptor B (ETB/ETA); format: protein assay
Endothelin-1 receptor = molecular target: T2, Endothelin-1 receptor (Homo sapiens, UniProt P25101); assay: Inhibitory activity against [125I]ET1 binding to human endothelin A receptor
T2 sequence (P25101 whole entry): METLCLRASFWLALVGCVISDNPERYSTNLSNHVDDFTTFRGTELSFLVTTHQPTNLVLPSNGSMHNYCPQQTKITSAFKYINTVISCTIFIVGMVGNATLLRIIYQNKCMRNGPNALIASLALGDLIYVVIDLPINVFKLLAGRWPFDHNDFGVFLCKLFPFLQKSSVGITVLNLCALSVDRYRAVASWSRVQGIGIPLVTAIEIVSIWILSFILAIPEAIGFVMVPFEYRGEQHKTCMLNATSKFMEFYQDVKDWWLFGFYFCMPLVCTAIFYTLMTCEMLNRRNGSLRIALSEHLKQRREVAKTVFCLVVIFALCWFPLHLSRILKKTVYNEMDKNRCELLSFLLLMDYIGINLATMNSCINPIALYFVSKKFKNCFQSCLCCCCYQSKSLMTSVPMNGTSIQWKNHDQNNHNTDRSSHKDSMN

Mus musculus = assay: In vivo efficacy of compound was determined in mouse after intravenous administration; format: functional
[6] = Bioavailability in rat (dose 1 mg/kg i.v.); format: ADME, organism-based; settings: in vivo, iv
[7] = Bioavailability in rat (dose 3 mg/kg p.o.); format: ADME, organism-based; settings: in vivo, po

| SMILES | Plasma level (Rattus norvegicus [1]) [nM] | Plasma level (Rattus norvegicus [2]) [nM] | IC50 [3] [nM] | PKB (Oryctolagus cuniculus) | Plasma level (Rattus norvegicus [4]) [nM] | Selectivity ratio [5] | IC50 (Endothelin-1 receptor) [nM] | AD50 (Mus musculus) [MPK] | bioavailability [6] [%] | bioavailability [7] [%] |
| --- | --- | --- | --- | --- | --- | --- | --- | --- | --- | --- |
| COc1ccc([C@@H]2c3nc(NC(C)C)ccc3[C@H](c3ccc4c(c3)OCO4)[C@H]2C(=O)O)c(CN(C)C(C)=O)c1 | 3 | 0.4 | 43 | 8.97 | 2 | 1600 | 0.027 | – | – | – |
| COCC(C)Cc1cc(OC)ccc1[C@@H]1c2nc(NC(C)C)ccc2[C@H](c2ccc3c(c2)OCO3)[C@H]1C(=O)O (stereo in doubt; form 1) | – | – | 48 | 8.33 | – | – | 0.025 | 0.039 | 70 | 70 |
| COc1ccc([C@@H]2c3nc(NC(C)C)ccc3[C@H](c3ccc4c(c3)OCO4)[C@H]2C(=O)O)c(CC(C)CO)c1 (stereo in doubt; form 1) | – | – | 54 | 8.33 | – | – | 0.041 | 0.034 | 7.6 | – |
| COc1ccc([C@@H]2c3nc(NC(C)C)ccc3[C@H](c3ccc4c(c3)OCO4)[C@H]2C(=O)O)c(CO)c1 | 94 | 19 | 62 | 7.76 | 130 | 1000 | 0.062 | 0.12 | – | 57 |

Source: ChEMBL document CHEMBL1147633, “Structure-activity relationships of a novel class of endothelin receptor selective antagonists; 6-carboxy-2-isopropylamino-5,7-diarylcyclopenteno[1,2-b]pyridines” (Bioorg Med Chem Lett, 2004)
